Measurements taken from patent US10358436B2, “Kinase inhibitors and method of treating cancer” (University Health Network, priority 2010, dated 2019).

Tests used:
[1] = biological target: Abl (Homo sapiens (Human), UniProt P00519); assay type: biochemical; settings: read-out: % Inhibition @ 0.1 μM, Abl
[2] = biological target: Abl (m) (Mus musculus (Mouse), UniProt P00520); assay type: biochemical; settings: read-out: % Inhibition @ 0.1 μM, Abl (m)
[3] = biological target: Abl (H396P) (Homo sapiens (Human), UniProt P00519, H396P); assay type: biochemical; settings: read-out: % Inhibition @ 0.1 μM, Abl (H396P)
[4] = biological target: Abl (M351T) (Homo sapiens (Human), UniProt P00519, M351T); assay type: biochemical; settings: read-out: % Inhibition @ 0.1 μM, Abl (M351T)
[5] = biological target: Abl (Q252H) (Homo sapiens (Human), UniProt P00519, Q252H); assay type: biochemical; settings: read-out: % Inhibition @ 0.1 μM, Abl (Q252H)
[6] = biological target: Abl (T315I) (Homo sapiens (Human), UniProt P00519, T315I); assay type: biochemical; settings: read-out: % Inhibition @ 0.1 μM, Abl (T315I)
[7] = biological target: Abl (Y253F) (Homo sapiens (Human), UniProt P00519, Y253F); assay type: biochemical; settings: read-out: % Inhibition @ 0.1 μM, Abl (Y253F)
[8] = biological target: ALK (Homo sapiens (Human), UniProt Q9UM73); assay type: biochemical; settings: read-out: % Inhibition @ 0.1 μM, ALK
[9] = biological target: Arg (Homo sapiens (Human), UniProt P42684); assay type: biochemical; settings: read-out: % Inhibition @ 0.1 μM, Arg
[10] = biological target: Arg (m) (Mus musculus (Mouse), UniProt Q4JIM5); assay type: biochemical; settings: read-out: % Inhibition @ 0.1 μM, Arg (m)
[11] = biological target: ARK5 (Homo sapiens (Human), UniProt O60285); assay type: biochemical; settings: read-out: % Inhibition @ 0.1 μM, ARK5
[12] = biological target: Aurora A (Homo sapiens (Human), UniProt O14965); assay type: biochemical; settings: read-out: % Inhibition @ 0.1 μM, Aurora-A
[13] = biological target: Bmx (Homo sapiens (Human), UniProt P51813); assay type: biochemical; settings: read-out: % Inhibition @ 0.1 μM, Bmx
[14] = biological target: EphA1 (Homo sapiens (Human), UniProt P21709); assay type: biochemical; settings: read-out: % Inhibition @ 0.1 μM, EphA1
[15] = biological target: EphB1 (Homo sapiens (Human), UniProt P54762); assay type: biochemical; settings: read-out: % Inhibition @ 0.1 μM, EphB1
[16] = biological target: FGFR1 (Homo sapiens (Human), UniProt P11362); assay type: biochemical; settings: read-out: % Inhibition @ 0.1 μM, FGFR1
[17] = biological target: FGFR1 (V561M) (Homo sapiens (Human), UniProt P11362, V561M); assay type: biochemical; settings: read-out: % Inhibition @ 0.1 μM, FGFR1 (V561M)
[18] = biological target: FGFR2 (Homo sapiens (Human), UniProt P21802); assay type: biochemical; settings: read-out: % Inhibition @ 0.1 μM, FGFR2
[19] = biological target: FGFR2 (N549H) (Homo sapiens (Human), UniProt P21802, N549H); assay type: biochemical; settings: read-out: % Inhibition @ 0.1 μM, FGFR2 (N549H)
[20] = biological target: FGFR3 (Homo sapiens (Human), UniProt P22607); assay type: biochemical; settings: read-out: % Inhibition @ 0.1 μM, FGFR3
[21] = biological target: GCK (Homo sapiens (Human), UniProt Q12851); assay type: biochemical; settings: read-out: % Inhibition @ 0.1 μM, GCK
[22] = biological target: IRAK1 (Homo sapiens (Human), UniProt P51617); assay type: biochemical; settings: read-out: % Inhibition @ 0.1 μM, IRAK1
[23] = biological target: Itk (Homo sapiens (Human), UniProt Q08881); assay type: biochemical; settings: read-out: % Inhibition @ 0.1 μM, Itk
[24] = biological target: Lck (Homo sapiens (Human), UniProt P06239); assay type: biochemical; settings: read-out: % Inhibition @ 0.1 μM, Lck
[25] = biological target: Lck activated (Homo sapiens (Human), UniProt P06239); assay type: biochemical; settings: read-out: % Inhibition @ 0.1 μM, Lck activated
[26] = biological target: MuSK (Homo sapiens (Human), UniProt O15146); assay type: biochemical; settings: read-out: % Inhibition @ 0.1 μM, MuSK
[27] = biological target: Ret (V804L) (Homo sapiens (Human), UniProt P07949, V804L); assay type: biochemical; settings: read-out: % Inhibition @ 0.1 μM, Ret (V804L)
[28] = biological target: Ron (Homo sapiens (Human), UniProt Q04912); assay type: biochemical; settings: read-out: % Inhibition @ 0.1 μM, Ron
[29] = biological target: Ros (Homo sapiens (Human), UniProt P08922); assay type: biochemical; settings: read-out: % Inhibition @ 0.1 μM, Ros
[30] = biological target: Tie2 (Homo sapiens (Human), UniProt Q02763); assay type: biochemical; settings: read-out: % Inhibition @ 0.1 μM, Tie2
[31] = biological target: Tie2 (R849W) (Homo sapiens (Human), UniProt Q02763, R849W); assay type: biochemical; settings: read-out: % Inhibition @ 0.1 μM, Tie2 (R849W)
[32] = biological target: Tie2 (Y897S) (Homo sapiens (Human), UniProt Q02763, Y897S); assay type: biochemical; settings: read-out: % Inhibition @ 0.1 μM, Tie2 (Y897S)
[33] = biological target: TRKA (Homo sapiens (Human), UniProt P04629); assay type: biochemical; settings: read-out: % Inhibition @ 0.1 μM, TrkA
[34] = biological target: TrkB (Homo sapiens (Human), UniProt Q16620); assay: biochemical; settings: read-out: % Inhibition @ 0.1 μM, TrkB
[35] = biological target: Aurora B (Homo sapiens (Human), UniProt Q96GD4); settings: read-out: % Inhibition @ 0.1 μM, Aurora-B
[36] = biological target: FLT3 (Homo sapiens (Human), UniProt P36888); settings: read-out: % Inhibition @ 0.1 μM, Flt3
FLT3, sequence (P36888 27-993): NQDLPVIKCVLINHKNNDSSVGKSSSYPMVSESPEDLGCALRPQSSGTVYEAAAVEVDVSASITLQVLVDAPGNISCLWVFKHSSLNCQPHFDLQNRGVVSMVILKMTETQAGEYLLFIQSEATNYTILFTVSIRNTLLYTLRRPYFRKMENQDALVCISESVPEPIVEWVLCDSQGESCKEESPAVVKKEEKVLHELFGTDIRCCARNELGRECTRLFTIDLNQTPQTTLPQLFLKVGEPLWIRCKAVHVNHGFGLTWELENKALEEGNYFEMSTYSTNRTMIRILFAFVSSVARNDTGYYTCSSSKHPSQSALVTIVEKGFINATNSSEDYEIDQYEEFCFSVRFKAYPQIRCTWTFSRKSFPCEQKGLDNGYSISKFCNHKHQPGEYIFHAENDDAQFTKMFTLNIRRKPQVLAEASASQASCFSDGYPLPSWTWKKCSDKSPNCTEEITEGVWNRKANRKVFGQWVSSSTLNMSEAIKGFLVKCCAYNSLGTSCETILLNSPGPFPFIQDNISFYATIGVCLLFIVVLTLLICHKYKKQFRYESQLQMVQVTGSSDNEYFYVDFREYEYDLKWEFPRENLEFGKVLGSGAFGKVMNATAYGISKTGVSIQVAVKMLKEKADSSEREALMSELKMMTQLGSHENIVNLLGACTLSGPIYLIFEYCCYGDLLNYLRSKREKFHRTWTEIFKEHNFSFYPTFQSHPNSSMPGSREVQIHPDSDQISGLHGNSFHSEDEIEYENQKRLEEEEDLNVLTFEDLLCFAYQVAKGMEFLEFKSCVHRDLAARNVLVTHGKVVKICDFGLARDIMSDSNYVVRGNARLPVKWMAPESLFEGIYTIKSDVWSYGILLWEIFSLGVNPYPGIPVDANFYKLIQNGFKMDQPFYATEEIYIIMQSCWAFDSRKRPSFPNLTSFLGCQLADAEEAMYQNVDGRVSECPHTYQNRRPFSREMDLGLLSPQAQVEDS

Bmx, sequence (P51813 whole entry): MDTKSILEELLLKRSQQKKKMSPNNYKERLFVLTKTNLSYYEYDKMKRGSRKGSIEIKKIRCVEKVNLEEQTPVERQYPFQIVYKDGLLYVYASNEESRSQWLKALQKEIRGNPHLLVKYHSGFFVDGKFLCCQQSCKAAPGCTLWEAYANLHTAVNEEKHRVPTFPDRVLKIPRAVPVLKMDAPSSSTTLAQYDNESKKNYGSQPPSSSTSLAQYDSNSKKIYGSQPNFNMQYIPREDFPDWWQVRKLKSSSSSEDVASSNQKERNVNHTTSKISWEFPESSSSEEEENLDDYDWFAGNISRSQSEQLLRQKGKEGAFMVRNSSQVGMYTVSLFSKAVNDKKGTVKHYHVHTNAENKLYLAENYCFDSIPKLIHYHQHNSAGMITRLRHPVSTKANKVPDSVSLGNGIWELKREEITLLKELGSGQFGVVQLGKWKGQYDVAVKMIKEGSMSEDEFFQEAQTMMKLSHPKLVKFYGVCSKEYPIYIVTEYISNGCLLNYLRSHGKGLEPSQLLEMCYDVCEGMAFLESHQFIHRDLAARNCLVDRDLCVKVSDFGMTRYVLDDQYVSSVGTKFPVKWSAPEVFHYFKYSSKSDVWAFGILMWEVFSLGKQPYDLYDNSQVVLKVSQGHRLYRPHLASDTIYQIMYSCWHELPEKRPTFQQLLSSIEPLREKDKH
ALK, sequence (Q9UM73 19-1620): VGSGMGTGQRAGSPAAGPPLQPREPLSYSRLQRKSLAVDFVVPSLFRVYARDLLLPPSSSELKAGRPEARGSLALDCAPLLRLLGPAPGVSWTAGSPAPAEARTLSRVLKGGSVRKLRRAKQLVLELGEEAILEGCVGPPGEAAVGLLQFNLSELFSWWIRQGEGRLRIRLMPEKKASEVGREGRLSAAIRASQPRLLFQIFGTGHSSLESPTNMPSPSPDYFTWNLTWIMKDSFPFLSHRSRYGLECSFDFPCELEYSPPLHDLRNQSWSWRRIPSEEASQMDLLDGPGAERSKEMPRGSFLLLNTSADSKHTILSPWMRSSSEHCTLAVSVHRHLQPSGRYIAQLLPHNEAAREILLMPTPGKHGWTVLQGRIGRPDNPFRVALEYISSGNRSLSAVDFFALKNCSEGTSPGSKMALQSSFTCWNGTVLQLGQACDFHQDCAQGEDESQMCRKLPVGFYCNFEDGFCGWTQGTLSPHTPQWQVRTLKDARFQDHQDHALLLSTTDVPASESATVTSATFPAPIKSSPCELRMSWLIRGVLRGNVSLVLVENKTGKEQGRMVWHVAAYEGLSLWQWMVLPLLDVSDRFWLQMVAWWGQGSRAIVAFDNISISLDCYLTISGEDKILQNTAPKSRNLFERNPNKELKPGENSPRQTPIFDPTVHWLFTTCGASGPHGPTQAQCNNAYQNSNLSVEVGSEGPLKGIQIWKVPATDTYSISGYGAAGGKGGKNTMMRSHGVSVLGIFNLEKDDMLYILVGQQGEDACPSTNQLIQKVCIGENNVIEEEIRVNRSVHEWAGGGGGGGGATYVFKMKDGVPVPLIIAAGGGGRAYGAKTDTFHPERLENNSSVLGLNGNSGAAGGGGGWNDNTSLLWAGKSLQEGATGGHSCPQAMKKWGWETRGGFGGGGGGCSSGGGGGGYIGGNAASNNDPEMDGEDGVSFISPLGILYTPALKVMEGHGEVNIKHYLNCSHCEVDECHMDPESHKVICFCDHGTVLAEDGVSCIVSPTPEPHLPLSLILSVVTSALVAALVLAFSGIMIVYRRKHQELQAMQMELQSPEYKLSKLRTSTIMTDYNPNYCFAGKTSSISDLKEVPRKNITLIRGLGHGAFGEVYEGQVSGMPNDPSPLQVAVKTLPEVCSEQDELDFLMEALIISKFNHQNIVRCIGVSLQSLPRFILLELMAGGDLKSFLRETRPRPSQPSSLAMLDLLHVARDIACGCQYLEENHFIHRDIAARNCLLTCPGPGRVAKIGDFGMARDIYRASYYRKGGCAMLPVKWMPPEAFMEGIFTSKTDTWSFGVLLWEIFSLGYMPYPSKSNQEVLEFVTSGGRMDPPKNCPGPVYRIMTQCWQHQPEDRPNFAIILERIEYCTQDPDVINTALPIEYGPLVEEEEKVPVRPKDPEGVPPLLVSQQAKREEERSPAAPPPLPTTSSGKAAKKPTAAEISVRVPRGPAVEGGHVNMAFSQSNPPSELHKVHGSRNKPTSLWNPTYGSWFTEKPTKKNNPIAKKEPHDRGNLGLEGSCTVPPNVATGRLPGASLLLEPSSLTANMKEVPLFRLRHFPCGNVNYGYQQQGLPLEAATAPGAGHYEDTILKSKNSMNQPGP
Ret (V804L), sequence (P07949 29-1114 V804L): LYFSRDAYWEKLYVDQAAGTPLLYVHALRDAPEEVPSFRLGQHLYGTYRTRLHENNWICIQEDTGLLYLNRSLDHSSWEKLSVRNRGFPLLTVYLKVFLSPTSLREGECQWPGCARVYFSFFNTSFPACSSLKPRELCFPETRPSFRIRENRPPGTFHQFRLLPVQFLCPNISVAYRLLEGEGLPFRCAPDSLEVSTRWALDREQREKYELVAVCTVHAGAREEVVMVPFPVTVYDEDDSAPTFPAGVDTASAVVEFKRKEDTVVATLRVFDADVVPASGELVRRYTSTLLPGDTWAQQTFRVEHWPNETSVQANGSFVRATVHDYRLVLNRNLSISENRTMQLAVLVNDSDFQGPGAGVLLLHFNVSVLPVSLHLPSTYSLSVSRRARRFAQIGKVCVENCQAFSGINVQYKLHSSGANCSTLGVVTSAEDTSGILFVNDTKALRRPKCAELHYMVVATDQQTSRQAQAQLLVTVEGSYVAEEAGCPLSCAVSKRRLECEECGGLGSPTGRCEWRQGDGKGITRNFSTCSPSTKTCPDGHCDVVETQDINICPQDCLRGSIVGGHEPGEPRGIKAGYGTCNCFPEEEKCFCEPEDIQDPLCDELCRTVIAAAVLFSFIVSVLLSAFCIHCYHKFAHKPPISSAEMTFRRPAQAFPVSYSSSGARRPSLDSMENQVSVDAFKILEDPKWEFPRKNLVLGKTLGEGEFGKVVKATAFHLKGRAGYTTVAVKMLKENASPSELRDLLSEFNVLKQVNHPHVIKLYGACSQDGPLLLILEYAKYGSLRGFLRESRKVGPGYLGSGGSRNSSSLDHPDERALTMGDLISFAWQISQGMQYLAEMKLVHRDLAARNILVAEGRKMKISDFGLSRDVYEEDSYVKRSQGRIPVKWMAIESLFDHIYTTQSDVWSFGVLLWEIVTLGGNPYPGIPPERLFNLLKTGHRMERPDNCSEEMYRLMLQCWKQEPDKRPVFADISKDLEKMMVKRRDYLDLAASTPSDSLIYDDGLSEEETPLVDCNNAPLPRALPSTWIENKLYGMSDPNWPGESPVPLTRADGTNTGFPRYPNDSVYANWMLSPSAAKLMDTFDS
FGFR1, sequence (P11362 22-822): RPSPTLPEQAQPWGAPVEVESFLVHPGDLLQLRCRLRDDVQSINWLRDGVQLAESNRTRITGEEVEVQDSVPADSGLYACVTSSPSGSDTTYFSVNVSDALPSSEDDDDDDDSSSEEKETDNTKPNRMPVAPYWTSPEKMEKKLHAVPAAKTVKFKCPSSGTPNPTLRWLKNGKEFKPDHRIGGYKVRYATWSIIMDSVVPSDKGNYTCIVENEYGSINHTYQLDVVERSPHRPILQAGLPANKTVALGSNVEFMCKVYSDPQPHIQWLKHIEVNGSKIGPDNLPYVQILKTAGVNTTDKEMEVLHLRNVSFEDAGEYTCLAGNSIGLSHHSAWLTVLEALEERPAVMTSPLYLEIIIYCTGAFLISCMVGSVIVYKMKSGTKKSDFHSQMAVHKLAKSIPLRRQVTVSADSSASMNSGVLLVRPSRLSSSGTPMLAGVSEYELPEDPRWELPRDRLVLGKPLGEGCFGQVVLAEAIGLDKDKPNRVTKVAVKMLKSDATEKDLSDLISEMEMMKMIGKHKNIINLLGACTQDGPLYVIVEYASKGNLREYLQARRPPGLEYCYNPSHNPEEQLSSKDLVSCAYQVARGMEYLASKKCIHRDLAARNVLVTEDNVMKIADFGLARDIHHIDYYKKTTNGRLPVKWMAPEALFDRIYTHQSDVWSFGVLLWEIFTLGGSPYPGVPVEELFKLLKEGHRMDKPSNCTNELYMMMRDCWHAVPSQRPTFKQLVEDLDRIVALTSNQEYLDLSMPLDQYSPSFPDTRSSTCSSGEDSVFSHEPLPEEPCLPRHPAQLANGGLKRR

COc1ccc2c(c1)[C@]1(C[C@H]1c1ccc3c(/C=C/c4ccc(N5CCN(C)CC5)nc4)n[nH]c3c1)C(=O)N2 [Example A33, (1R,2S)-5′-methoxy-2-(3-((E)-2-(6-(4-methylpiperazin-1-yl)pyridin-3-yl)vinyl)-1H-indazol-6-yl)spiro[cyclopropane-1,3′-indolin]-2′-one 2,2,2-trifluoroacetate]
inhibition at 0.1 µM [1]: 72%
inhibition at 0.1 µM [2]: 96%
inhibition at 0.1 µM [3]: 93%
inhibition at 0.1 µM [4]: 95%
inhibition at 0.1 µM [5]: 83%
inhibition at 0.1 µM [6]: 94%
inhibition at 0.1 µM [7]: 78%
inhibition at 0.1 µM [8]: 32%
inhibition at 0.1 µM [9]: 94%
inhibition at 0.1 µM [10]: 96%
inhibition at 0.1 µM [11]: 67%
inhibition at 0.1 µM [12]: 96%
inhibition at 0.1 µM [13]: 68%
inhibition at 0.1 µM [14]: 22%
inhibition at 0.1 µM [15]: 34%
inhibition at 0.1 µM [16]: 87%
inhibition at 0.1 µM [17]: 91%
inhibition at 0.1 µM [18]: 82%
inhibition at 0.1 µM [19]: 75%
inhibition at 0.1 µM [20]: 91%
inhibition at 0.1 µM [21]: 51%
inhibition at 0.1 µM [22]: 24%
inhibition at 0.1 µM [23]: 34%
inhibition at 0.1 µM [24]: 48%
inhibition at 0.1 µM [25]: 41%
inhibition at 0.1 µM [26]: 18%
inhibition at 0.1 µM [27]: 43%
inhibition at 0.1 µM [28]: 42%
inhibition at 0.1 µM [29]: 23%
inhibition at 0.1 µM [30]: 83%
inhibition at 0.1 µM [31]: 40%
inhibition at 0.1 µM [32]: 49%
inhibition at 0.1 µM [33]: 97%
inhibition at 0.1 µM [34]: 98%
inhibition at 0.1 µM [35]: 100%
inhibition at 0.1 µM [36]: 28%
